Source: US20250082674A1, “METHODS OF TREATING COPPER METABOLISM-ASSOCIATED DISEASES OR DISORDERS” (priority 2021, published 2025)
Read-outs that look alike come from different tables or passages of the source.

Description: Adverse events were reported by the patient (or, when appropriate, by a caregiver, surrogate, or the patient's legally authorized representative). The Investigator and any qualified designees were responsible for detecting, documenting, and recording events that meet the definition of an AE or SAE and remain responsible for following up AEs that were serious, considered related to the study intervention or study procedures, or that caused the patient to discontinue the study.
Acute worsening of neurologic symptoms typically within 6 months of start of therapy is a known complication associated with chelation therapy for WD. […] Neurologic AESI for Study 301 were considered as all AEs in the Medical Dictionary for Regulatory Activities (MedDRA) System Organ Class (SOC) “Nervous system disorders” or any other AE judged by the Investigator as an AESI.

[1] = Hematological AEs, Primary Evaluation Period, Safety Set, BC-TTM N = 137, SoC N = 70
[2] = Primary Evaluation Period, 48 Weeks, BC-TTM N = 137, SoC N = 70
[3] = Primary Evaluation Period, Safety Set, BC-TTM N = 137, SoC N = 70
[4] = Study 301, Primary Evaluation Period

Substance: Bis-choline tetrathiomolybdate [BC-TTM]
- Anemia, E events [1]: 7
- Anemia, N participants [1]: 6
- Anemia, participants (%) [1]: 4.4%
- Leukopenia, E events [1]: 3
- Leukopenia, N participants [1]: 2
- Leukopenia, participants (%) [1]: 1.5%
- Neutropenia, E events [1]: 6
- Neutropenia, N participants [1]: 6
- Neutropenia, participants (%) [1]: 4.4%
- Neutrophil count decreased, E events [1]: 4
- Neutrophil count decreased, N participants [1]: 2
- Neutrophil count decreased, participants (%) [1]: 1.5%
- Thrombocytopenia, E events [1]: 2
- Thrombocytopenia, N participants [1]: 1
- Thrombocytopenia, participants (%) [1]: 0.7%
- Alanine aminotransferase increased, N participants [2]: 20
- Alanine aminotransferase increased, participants (%) [2]: 14.6%
- Aspartate aminotransferase increased, N participants [2]: 4
- Aspartate aminotransferase increased, participants (%) [2]: 2.9%
- Ear and labyrinth disorders, N participants [2]: 7
- Ear and labyrinth disorders, participants (%) [2]: 5.1%
- Fatigue, N participants [2]: 13
- Fatigue, participants (%) [2]: 9.5%
- Gamma-glutamyltransferase increased, N participants [2]: 3
- Gamma-glutamyltransferase increased, participants (%) [2]: 2.2%
- Hepatic enzyme increased, N participants [2]: 3
- Hepatic enzyme increased, participants (%) [2]: 2.2%
- Hepatobiliary disorders, N participants [2]: 9
- Hepatobiliary disorders, participants (%) [2]: 6.6%
- Investigations, N participants [2]: 46
- Investigations, participants (%) [2]: 33.6%
- Nervous system disorders, N participants [2]: 47
- Nervous system disorders, participants (%) [2]: 34.3%
- Neutrophil count decreased, N participants [2]: 2
- Neutrophil count decreased, participants (%) [2]: 1.5%
- Pruritus, N participants [2]: 5
- Pruritus, participants (%) [2]: 3.6%
- Psychiatric disorders, N participants [2]: 26
- Psychiatric disorders, participants (%) [2]: 19.0%
- Pyrexia, N participants [2]: 8
- Pyrexia, participants (%) [2]: 5.8%
- Rash, N participants [2]: 9
- Rash, participants (%) [2]: 6.6%
- Skin and subcutaneous tissue disorders, N participants [2]: 30
- Skin and subcutaneous tissue disorders, participants (%) [2]: 21.9%
- ALT increased, E events [3]: 25
- ALT increased, N participants [3]: 20
- ALT increased, participants (%) [3]: 14.6%
- AST increased, E events [3]: 4
- AST increased, N participants [3]: 4
- AST increased, participants (%) [3]: 2.9%
- GGT increased, E events [3]: 3
- GGT increased, N participants [3]: 3
- GGT increased, participants (%) [3]: 2.2%
- Hepatic enzyme increased, E events [3]: 5
- Hepatic enzyme increased, N participants [3]: 3
- Hepatic enzyme increased, participants (%) [3]: 2.2%
- Hepatic function abnormal, E events [3]: 3
- Hepatic function abnormal, N participants [3]: 3
- Hepatic function abnormal, participants (%) [3]: 2.2%
- Hyperbilirubinemia, E events [3]: 1
- Hyperbilirubinemia, N participants [3]: 1
- Hyperbilirubinemia, participants (%) [3]: 0.7%
- Hypertransaminasemia, E events [3]: 4
- Hypertransaminasemia, N participants [3]: 2
- Hypertransaminasemia, participants (%) [3]: 1.5%
- Jaundice, E events [3]: 1
- Jaundice, N participants [3]: 1
- Jaundice, participants (%) [3]: 0.7%
- LFT abnormal, E events [3]: 2
- LFT abnormal, N participants [3]: 2
- LFT abnormal, participants (%) [3]: 1.5%
- LFT increased, E events [3]: 4
- LFT increased, N participants [3]: 4
- LFT increased, participants (%) [3]: 2.9%
- Liver disorder, E events [3]: 1
- Liver disorder, N participants [3]: 1
- Liver disorder, participants (%) [3]: 0.7%
- ALT increased as share of treatment-emergent adverse events (25/577) (Study 301): 4.3%
- incidence of AE ALT increased (Study 301): 14.6%
- incidence of SAEs, Nervous system disorders (Study 301): 4.4%
- incidence of hematologic AEs, BC-TTM versus SoC (Study 301): similar
- participants with Grade 4 AEs, Nervous system disorders (Study 301): 1 participant
- participants with Grade 5 AEs, Nervous system disorders (Study 301): 1 participant
- participants with highest severity Grade 1 AEs, Nervous system disorders (Study 301): 24.1%
- participants with highest severity Grade 2 AEs, Nervous system disorders (Study 301): 13.9%
- participants with neurologic AESI in the SOC Psychiatric disorders (Study 301): 3.6%
- AEs in SOC Ear and labyrinth disorders [4]: 5.1%
- AEs in SOC Hepatobiliary disorders [4]: 6.6%
- AEs in SOC Investigations [4]: 33.6%
- AEs in SOC Psychiatric disorders [4]: 19.0%
- AEs in SOC Skin and subcutaneous tissue disorders [4]: 21.9%
- incidence of AEs in the SOC Nervous system disorders [4]: 34.3%
- incidence of headache [4]: 8.0%
- incidence of tremor [4]: 7.3%
- participants discontinued due to AE of anemia (Grade 1) (clinical program for BC-TTM): 1 participant
- participants discontinued due to AE of neutropenia (Grade 2) (clinical program for BC-TTM): 1 participant
- overall safety profile (participants with WD): acceptable safety profile and is generally well-tolerated
